21 compounds from ChEMBL document CHEMBL4308825, “Positive and Negative Allosteric Modulators of N-Methyl-d-aspartate (NMDA) Receptors: Structure-Activity Relationships and Mechanisms of Action” (J Med Chem, 2018) can be followed below.

A value given as a limit tells only on which side of the number the result lay.

The target of assay [1] is T1, Glutamate receptor ionotropic, NMDA 2B (Homo sapiens, UniProt Q05586+Q13224). The experiment in a line: Negative allosteric modulation of GluN2B receptor (unknown origin) expressed in xenopus laevis oocytes assessed as reduction in glycine-induced channel current by two electrode voltage clamp method. The assay is classed as cell-based.
In assay [2] the target is T2, Glutamate receptor ionotropic, NMDA 2A (Homo sapiens, UniProt Q05586+Q12879). The experiment in a line: Negative allosteric modulation of GluN2A receptor (unknown origin) expressed in xenopus laevis oocytes assessed as reduction in glycine-induced channel current by two electrode voltage clamp method. The assay is classed as cell-based.
Assay [3] addresses Glutamate NMDA receptor; GRIN1/GRIN2A (Homo sapiens, UniProt Q05586+Q12879). Kind of assay: Negative allosteric modulation of GluN1a/GluN2A receptor (unknown origin) expressed in xenopus laevis oocytes assessed as reduction in glutamate/glycine-induced channel current at -60 mV holding potential by two electrode voltage clamp method. The assay is classed as cell-based. In general terms: In two-electrode clamp one electrode senses voltage and the other passes current.

Assay [4] addresses Glutamate NMDA receptor; GRIN1/GRIN2B (Homo sapiens, UniProt Q05586+Q13224). Kind of assay: Negative allosteric modulation of GluN1a/GluN2B receptor (unknown origin) expressed in xenopus laevis oocytes assessed as reduction in glutamate/glycine-induced channel current at -60 mV holding potential by two electrode voltage clamp method. The assay is classed as cell-based.
For assay [5], the target named is Ionotropic glutamate receptor NMDA 1/2C (Homo sapiens, UniProt Q05586+Q14957). Kind of assay: Negative allosteric modulation of GluN1a/GluN2C receptor (unknown origin) expressed in xenopus laevis oocytes assessed as reduction in glutamate/glycine-induced channel current at -60 mV holding potential by two electrode voltage clamp method. The assay is classed as cell-based.

For assay [6], the target named is Ionotropic glutamate receptor NMDA 1/2D (Homo sapiens, UniProt O15399+Q05586). Kind of assay: Negative allosteric modulation of GluN1a/GluN2D receptor (unknown origin) expressed in xenopus laevis oocytes assessed as reduction in glutamate/glycine-induced channel current at -60 mV holding potential by two electrode voltage clamp method. The assay is classed as cell-based.

Assay [7] deals with T3, Glutamate receptor ionotropic, NMDA 2C (Homo sapiens, UniProt Q05586+Q14957). Kind of assay: Negative allosteric modulation of GluN2C receptor (unknown origin) expressed in xenopus laevis oocytes assessed as reduction in glycine-induced channel current by two electrode voltage clamp method. The assay is classed as cell-based.
For assay [8], the target named is T4, Glutamate receptor ionotropic, NMDA 2D (Homo sapiens, UniProt O15399+Q05586). Kind of assay: Negative allosteric modulation of GluN2D receptor (unknown origin) expressed in xenopus laevis oocytes assessed as reduction in glycine-induced channel current by two electrode voltage clamp method. It counts as cell-based.
Assay [9] is filed under the species Homo sapiens. The experiment in a line: Selectivity ratio of IC50 for GluN2B receptor (unknown origin) expressed in xenopus laevis oocytes to IC50 for GluN2C receptor (unknown origin) expressed in xenopus laevis oocytes. It counts as cell-based.
The species entered for assay [10] is Homo sapiens. Kind of assay: Selectivity ratio of IC50 for GluN2A receptor (unknown origin) expressed in xenopus laevis oocytes to IC50 for GluN2C receptor (unknown origin) expressed in xenopus laevis oocytes. The assay is classed as cell-based.
For assay [11], the species on record is Homo sapiens. Kind of assay: Selectivity ratio of IC50 for GluN2B receptor (unknown origin) expressed in xenopus laevis oocytes to IC50 for GluN2D receptor (unknown origin) expressed in xenopus laevis oocytes. It counts as cell-based.
For assay [12], the species on record is Homo sapiens. The experiment in a line: Selectivity ratio of IC50 for GluN2A receptor (unknown origin) expressed in xenopus laevis oocytes to IC50 for GluN2D receptor (unknown origin) expressed in xenopus laevis oocytes. The assay is classed as cell-based.
Assay [13] concerns the target T2, Glutamate receptor ionotropic, NMDA 2A. Kind of assay: Positive allosteric modulation of GluN2A receptor (unknown origin) expressed in xenopus laevis oocytes assessed as increase in glycine-induced channel current by two electrode voltage clamp method. It counts as cell-based.
For assay [14], the target named is T1, Glutamate receptor ionotropic, NMDA 2B. Kind of assay: Positive allosteric modulation of GluN2B receptor (unknown origin) expressed in xenopus laevis oocytes assessed as increase in glycine-induced channel current by two electrode voltage clamp method. The assay is classed as cell-based.
Assay [15] concerns the target T2, Glutamate receptor ionotropic, NMDA 2A. The experiment in a line: Positive allosteric modulation of EGFP-fused human GluN2A receptor expressed in HEK293T cells assessed as increase in glycine-induced channel current by two electrode voltage clamp method. The assay is classed as cell-based.
The target in assay [16] is T1, Glutamate receptor ionotropic, NMDA 2B. Kind of assay: Positive allosteric modulation of EGFP-fused human GluN2B receptor expressed in HEK293T cells assessed as increase in glycine-induced channel current by two electrode voltage clamp method. It counts as cell-based.
Assay [17] deals with T3, Glutamate receptor ionotropic, NMDA 2C. The experiment in a line: Positive allosteric modulation of EGFP-fused human GluN2C receptor expressed in HEK293T cells assessed as increase in glycine-induced channel current by two electrode voltage clamp method. The assay is classed as cell-based.
For assay [18], the target named is T4, Glutamate receptor ionotropic, NMDA 2D. Kind of assay: Positive allosteric modulation of EGFP-fused human GluN2D receptor expressed in HEK293T cells assessed as increase in glycine-induced channel current by two electrode voltage clamp method. The assay is classed as cell-based.
For assay [19] the target is unchanged. The experiment in a line: Positive allosteric modulation of GluN2D receptor (unknown origin) expressed in xenopus laevis oocytes assessed as increase in glycine-induced channel current by two electrode voltage clamp method. It counts as cell-based.
For assay [20], the target named is T3, Glutamate receptor ionotropic, NMDA 2C. The experiment in a line: Positive allosteric modulation of GluN2C receptor (unknown origin) expressed in xenopus laevis oocytes assessed as increase in glycine-induced channel current by two electrode voltage clamp method. It counts as cell-based.
For assay [21], the target named is Glutamate receptor ionotropic, NMDA 2B (Rattus norvegicus, UniProt Q00960). The experiment in a line: Positive allosteric modulation of GluN2B receptor in rat spinal cord neurons assessed as increase in glycine-induced channel current by two electrode voltage clamp method.
The target in assay [22] is Glutamate receptor ionotropic, NMDA 2B (Homo sapiens, UniProt Q13224). Kind of assay: Positive allosteric modulation of GluN2B receptor (unknown origin) in hippocampal neurons assessed as increase in glycine-induced channel current by two electrode voltage clamp method.
The target in assay [23] is T2, Glutamate receptor ionotropic, NMDA 2A. The experiment in a line: Positive allosteric modulation of GluN2A receptor (unknown origin) expressed in HEK cell assessed as increase in glycine-induced calcium influx.
Assay [24] deals with T4, Glutamate receptor ionotropic, NMDA 2D. The experiment in a line: Negative allosteric modulation of human GluN2D receptor expressed in HEK cells assessed as reduction in glycine/glutamate-induced intracellular calcium flux preincubated for 5 mins followed by glycine/glutamate addition by Fluo-4-AM dye based FLIPR assay. It counts as cell-based. (In general: A change in cytosolic calcium serves as a functional read-out for many receptors and channels.)

For assay [25], the target named is T3, Glutamate receptor ionotropic, NMDA 2C. Kind of assay: Negative allosteric modulation of human GluN2C receptor expressed in xenopus laevis oocytes assessed as reduction in 3 uM glycine-induced channel current at -40 mV holding potential by two electrode voltage clamp method. It counts as cell-based.
Assay [26] deals with T4, Glutamate receptor ionotropic, NMDA 2D. The experiment in a line: Negative allosteric modulation of human GluN2D receptor expressed in xenopus laevis oocytes assessed as reduction in 3 uM glycine-induced channel current at -40 mV holding potential by two electrode voltage clamp method. It counts as cell-based.
In assay [27] the target is T2, Glutamate receptor ionotropic, NMDA 2A. The experiment in a line: Negative allosteric modulation of human GluN2A receptor expressed in xenopus laevis oocytes assessed as reduction in 3 uM glycine-induced channel current at -40 mV holding potential by two electrode voltage clamp method. The assay is classed as cell-based.

T3 sequence (Q14957 whole entry, one chain of several): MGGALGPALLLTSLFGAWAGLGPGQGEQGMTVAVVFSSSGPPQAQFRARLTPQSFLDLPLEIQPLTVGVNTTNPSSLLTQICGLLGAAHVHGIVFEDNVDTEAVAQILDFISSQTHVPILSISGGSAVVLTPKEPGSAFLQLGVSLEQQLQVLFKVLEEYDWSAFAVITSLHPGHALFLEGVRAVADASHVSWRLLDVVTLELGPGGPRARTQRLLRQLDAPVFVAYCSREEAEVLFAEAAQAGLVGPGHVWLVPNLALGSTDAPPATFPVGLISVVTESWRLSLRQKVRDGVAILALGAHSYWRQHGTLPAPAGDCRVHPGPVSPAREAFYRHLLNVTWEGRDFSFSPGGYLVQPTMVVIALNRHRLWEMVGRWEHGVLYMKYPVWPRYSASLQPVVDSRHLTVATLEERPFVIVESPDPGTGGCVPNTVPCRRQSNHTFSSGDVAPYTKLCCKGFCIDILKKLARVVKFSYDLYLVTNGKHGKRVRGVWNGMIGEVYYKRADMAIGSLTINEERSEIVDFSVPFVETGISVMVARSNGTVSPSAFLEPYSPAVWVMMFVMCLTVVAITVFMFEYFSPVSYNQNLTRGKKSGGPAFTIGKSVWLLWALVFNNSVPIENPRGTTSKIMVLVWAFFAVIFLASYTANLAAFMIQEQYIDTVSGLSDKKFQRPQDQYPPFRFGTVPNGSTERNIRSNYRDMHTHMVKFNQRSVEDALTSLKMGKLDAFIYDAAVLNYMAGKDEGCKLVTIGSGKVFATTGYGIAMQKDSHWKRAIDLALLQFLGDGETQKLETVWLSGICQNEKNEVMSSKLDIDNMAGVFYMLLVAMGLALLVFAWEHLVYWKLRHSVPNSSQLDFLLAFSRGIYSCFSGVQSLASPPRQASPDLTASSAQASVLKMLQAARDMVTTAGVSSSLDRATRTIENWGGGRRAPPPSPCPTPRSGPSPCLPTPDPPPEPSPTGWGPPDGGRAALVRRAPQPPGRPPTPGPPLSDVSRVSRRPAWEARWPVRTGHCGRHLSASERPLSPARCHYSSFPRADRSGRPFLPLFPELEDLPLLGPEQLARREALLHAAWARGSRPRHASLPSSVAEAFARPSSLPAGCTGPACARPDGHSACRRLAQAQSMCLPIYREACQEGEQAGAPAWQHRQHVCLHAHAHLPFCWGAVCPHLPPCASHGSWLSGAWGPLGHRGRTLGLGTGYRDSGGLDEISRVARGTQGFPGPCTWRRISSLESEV
T1 sequence (Q13224 whole entry, one chain of several): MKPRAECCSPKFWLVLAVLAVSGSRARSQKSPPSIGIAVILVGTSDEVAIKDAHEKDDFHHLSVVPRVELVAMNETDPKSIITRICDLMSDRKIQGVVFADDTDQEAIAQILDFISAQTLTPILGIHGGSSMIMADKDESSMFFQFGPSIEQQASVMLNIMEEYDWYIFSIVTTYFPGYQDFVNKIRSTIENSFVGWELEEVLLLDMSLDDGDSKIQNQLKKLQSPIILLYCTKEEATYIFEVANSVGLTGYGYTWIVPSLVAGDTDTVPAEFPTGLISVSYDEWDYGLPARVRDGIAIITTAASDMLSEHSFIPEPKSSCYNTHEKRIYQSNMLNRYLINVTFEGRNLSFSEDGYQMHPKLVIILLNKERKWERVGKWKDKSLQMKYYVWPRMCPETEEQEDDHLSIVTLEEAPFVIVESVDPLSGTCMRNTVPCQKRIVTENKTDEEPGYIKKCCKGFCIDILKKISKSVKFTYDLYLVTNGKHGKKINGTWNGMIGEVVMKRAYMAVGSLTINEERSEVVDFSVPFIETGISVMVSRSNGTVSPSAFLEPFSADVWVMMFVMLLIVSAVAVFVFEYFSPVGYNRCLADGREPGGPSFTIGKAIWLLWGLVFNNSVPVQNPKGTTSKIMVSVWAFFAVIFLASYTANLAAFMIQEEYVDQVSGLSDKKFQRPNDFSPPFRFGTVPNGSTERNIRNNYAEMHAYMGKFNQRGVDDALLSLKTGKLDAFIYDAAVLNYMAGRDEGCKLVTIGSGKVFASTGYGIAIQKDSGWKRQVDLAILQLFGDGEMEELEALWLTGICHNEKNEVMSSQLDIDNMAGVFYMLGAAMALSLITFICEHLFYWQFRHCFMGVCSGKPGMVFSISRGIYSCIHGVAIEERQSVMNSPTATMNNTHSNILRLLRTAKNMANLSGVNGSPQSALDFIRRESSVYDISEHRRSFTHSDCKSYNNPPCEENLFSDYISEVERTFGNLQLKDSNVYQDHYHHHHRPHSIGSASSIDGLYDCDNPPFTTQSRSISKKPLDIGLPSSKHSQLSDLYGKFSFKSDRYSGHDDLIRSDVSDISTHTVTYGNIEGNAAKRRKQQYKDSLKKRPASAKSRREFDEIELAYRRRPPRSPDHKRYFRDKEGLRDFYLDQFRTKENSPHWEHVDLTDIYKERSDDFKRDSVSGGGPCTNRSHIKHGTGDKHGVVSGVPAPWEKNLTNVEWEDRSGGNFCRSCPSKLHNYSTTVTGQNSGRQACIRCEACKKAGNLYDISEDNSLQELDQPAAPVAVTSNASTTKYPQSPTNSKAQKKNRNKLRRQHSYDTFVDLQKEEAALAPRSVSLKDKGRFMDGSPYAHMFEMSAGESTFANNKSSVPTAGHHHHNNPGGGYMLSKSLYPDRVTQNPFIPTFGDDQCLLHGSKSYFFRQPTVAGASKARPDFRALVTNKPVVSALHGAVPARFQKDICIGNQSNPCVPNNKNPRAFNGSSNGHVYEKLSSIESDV
T2 sequence (Q12879 whole entry, one chain of several): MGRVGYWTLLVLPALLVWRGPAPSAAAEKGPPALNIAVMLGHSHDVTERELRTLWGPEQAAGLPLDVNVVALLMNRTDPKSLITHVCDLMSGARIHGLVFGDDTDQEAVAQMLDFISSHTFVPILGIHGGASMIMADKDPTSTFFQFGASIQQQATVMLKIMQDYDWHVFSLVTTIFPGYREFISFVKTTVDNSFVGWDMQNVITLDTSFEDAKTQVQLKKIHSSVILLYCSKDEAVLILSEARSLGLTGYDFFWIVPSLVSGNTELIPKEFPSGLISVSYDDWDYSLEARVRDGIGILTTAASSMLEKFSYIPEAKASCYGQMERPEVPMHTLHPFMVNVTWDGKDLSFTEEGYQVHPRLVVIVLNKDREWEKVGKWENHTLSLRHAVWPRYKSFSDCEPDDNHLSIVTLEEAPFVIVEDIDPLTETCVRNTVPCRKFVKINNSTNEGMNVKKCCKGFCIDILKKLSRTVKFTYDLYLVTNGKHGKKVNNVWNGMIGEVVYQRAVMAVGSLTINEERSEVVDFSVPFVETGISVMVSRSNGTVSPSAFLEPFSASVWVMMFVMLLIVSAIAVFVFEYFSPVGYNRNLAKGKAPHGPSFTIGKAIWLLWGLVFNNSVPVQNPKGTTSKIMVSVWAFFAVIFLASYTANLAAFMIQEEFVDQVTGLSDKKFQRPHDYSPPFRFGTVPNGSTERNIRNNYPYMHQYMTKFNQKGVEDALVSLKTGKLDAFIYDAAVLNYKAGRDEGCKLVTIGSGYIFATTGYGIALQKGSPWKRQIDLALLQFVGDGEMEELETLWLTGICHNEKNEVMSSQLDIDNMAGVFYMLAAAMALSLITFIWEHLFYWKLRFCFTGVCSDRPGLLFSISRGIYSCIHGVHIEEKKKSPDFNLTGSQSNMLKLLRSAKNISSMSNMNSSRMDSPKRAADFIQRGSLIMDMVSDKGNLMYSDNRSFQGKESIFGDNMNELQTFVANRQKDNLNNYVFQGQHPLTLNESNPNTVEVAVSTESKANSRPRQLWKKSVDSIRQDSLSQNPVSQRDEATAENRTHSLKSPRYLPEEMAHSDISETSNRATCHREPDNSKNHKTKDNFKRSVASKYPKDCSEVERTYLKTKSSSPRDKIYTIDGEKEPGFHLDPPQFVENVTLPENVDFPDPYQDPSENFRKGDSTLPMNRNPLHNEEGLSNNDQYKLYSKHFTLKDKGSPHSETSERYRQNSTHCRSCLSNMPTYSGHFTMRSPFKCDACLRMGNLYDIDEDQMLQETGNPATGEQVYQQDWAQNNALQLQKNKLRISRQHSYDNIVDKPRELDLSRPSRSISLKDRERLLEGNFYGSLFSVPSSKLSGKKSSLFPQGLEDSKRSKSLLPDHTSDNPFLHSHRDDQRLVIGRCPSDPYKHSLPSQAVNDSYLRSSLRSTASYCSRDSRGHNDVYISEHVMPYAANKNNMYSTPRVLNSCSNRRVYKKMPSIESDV
Chain of Ionotropic glutamate receptor NMDA 1/2C (Q14957 whole entry, other chains not shown): as the sequence (Q14957 whole entry, one chain of several) above

Turning to `Cc1nccn1Cc1cc(-c2ccc(F)c(C(F)F)c2)cnn1` [EVT-101 FREE BASE], the IC50 (in general, the concentration at which inhibition is half-maximal) in [1] is 0.012 µM.
In the case of `O=C(O)c1cc2cc(Br)ccc2oc1=O`, the IC50 in assay [2] turned out to be 18.6 µM; in assay [3], 19 µM; in [4], 90 µM; in assay [5], 68 µM; in [6], 426 µM.
As to `CCN(CC)C(=S)Oc1ccc(C(=O)Nc2cccc3ccccc23)cc1`, the half-inhibitory concentration (IC50) in assay [7] was 2.6 µM; in assay [8], 1.4 µM. Also, the Ratio IC50 in the assay listed under Homo sapiens [9], in the assay filed under Homo sapiens [10], in the assay filed under Homo sapiens [11] and in the assay filed under Homo sapiens [12] was > 400 throughout.
For `CC(=O)[C@H]1CC[C@H]2[C@@H]3CC=C4C[C@@H](OS(=O)(=O)O)CC[C@]4(C)[C@H]3CC[C@]12C`, the values for the IC50 in assay [7] and in assay [8] were 112 µM and 118 µM, respectively. Also, the EC50 (as a rule, the concentration giving half of the maximal effect) in assay [13] turned out to be 21 µM; in assay [14] it was 33 µM; in assay [15] it was 34 µM; in assay [16], 63 µM; in [17], 83 µM; in assay [18], 78 µM.
Take `C[C@@H](CN1CCC(Cc2ccccc2)CC1)[C@@H](O)c1ccc(O)cc1`: the IC50 amounted to 52 µM in assay [2] and 0.009 µM in assay [1].
Consider `CCCc1nc2[nH]c(C)c(NS(=O)(=O)c3ccc(C4CCCCC4)cc3)c(=O)n2n1`, for which the EC50 was 6.7 µM in assay [19], 3.2 µM in assay [13], 15.7 µM in assay [14] and 6.6 µM in assay [20].
`COc1ccc(OCC2c3cc(OC)c(OC)cc3CCN2C(=O)c2cccc(Cl)c2)cc1` (stereo unspecified): the half-maximal effective concentration (EC50) in [19] is 2.8 µM; in [13], > 10 µM; in assay [14], > 10 µM; in [20] it was 2.7 µM.
Turning to `O=C(O)c1cc2cc(-c3ccccc3)ccc2c(Br)c1O`, the IC50 worked out at 1.8 µM in assay [2], 2.4 µM in [1], 2 µM in [7] and 2.4 µM in [8].
As to `Cc1sc2nc(COc3ccc(F)cc3)cc(=O)n2c1[C@@H]1C[C@@H]1CO`, the EC50 in assay [13] amounted to 8.5 µM.
With `CC(=O)[C@H]1CC[C@H]2[C@@H]3CC[C@@H]4C[C@H](OS(=O)(=O)O)CC[C@]4(C)[C@H]3CC[C@]12C`, the half-maximal inhibitory concentration (IC50) in [2] amounted to 62 µM; in assay [1], 38 µM; in assay [7], 12 µM; in [8], 14 µM.
Consider `O=C(O)CCC(=O)N1N=C(c2c(-c3ccccc3)c3cc(Br)ccc3[nH]c2=O)CC1c1ccc(Br)cc1` (stereo unspecified), for which the IC50 in [2] is 78 µM; in [1], 19 µM; in assay [7], 5.4 µM; in assay [8] it was 2.7 µM.
In the case of `NCCCNCCCCNCCCN` [SPERMINE], the 50% effective concentration (EC50) in [14] is 127 µM; in [21], 81 µM; in assay [22], 125 µM.
For the compound `O=C(O)c1cc2cccc(O)c2cc1O`, the IC50 was determined as 9.7 µM in assay [2], 9.4 µM in assay [1] and 15 µM in assay [7]. In addition, in [19], the EC50 amounted to 10 µM.
As for `COc1ccc2nc(/C=C/c3cccc([N+](=O)[O-])c3)n(-c3ccc(C(=O)O)cc3)c(=O)c2c1`, the IC50 in [2] was 182 µM; in assay [1], 193 µM; in [7] it was 7.1 µM; in assay [8], 3.9 µM.
On to `CCN(Cc1cc(=O)n2c3c(sc2n1)CCC3)c1ccc(F)cc1`, for which the EC50 in assay [23] worked out at 2.43 µM.
As for `O=C(O)c1ccc2cc(I)c3ccccc3c2c1`, the IC50 in assay [7] and in assay [8] was 50 µM throughout. Besides, the EC50 in assay [13] was determined as 100 µM.
Turning to `COC(=O)c1ccc(C2C(C(C)=O)=C(O)C(=O)N2CCc2c(C)[nH]c3ccccc23)cc1` (stereo unspecified), the EC50 in assay [20] was determined as 13 µM.
Turning to `O=C(NNC(=O)c1ccc(CNS(=O)(=O)c2ccc(F)c(Cl)c2)cc1)c1ccccc1`, the half-inhibitory concentration (IC50) in assay [24] was > 30 µM; in assay [25], > 10 µM; in [26], > 10 µM.
Consider `Cc1ccc2[nH]c(=O)c(C3=NN(C(=O)CCC(=O)O)C(c4ccc(Br)cc4)C3)c(-c3ccccc3)c2c1` (stereo unspecified), for which the IC50 in assay [1] was 113 µM; in assay [7] it was 7 µM.
`CC(C)CCCc1ccc2cc(C(=O)O)ccc2c1`: the EC50 was 29 µM in assay [19], 28 µM in [13], 34 µM in [14] and 37 µM in [20].
In the case of `CC(C(O)c1ccc(O)cc1)N1CCC(Cc2ccccc2)CC1` (stereo unspecified) [IFENPRODIL], the IC50 came out at 39.5 µM in assay [27], 29.1 µM in [25] and 75.9 µM in assay [26].
